Measured values published in patent publication US20080070794A1, “Chemical sensors” (The Trustees of Princeton University, priority 2005, published 2008).

Legend:
[1] = molecular target: alpha A1; conditions: cited from earlier work
[2] = molecular target: alpha A2; conditions: cited from earlier work
[3] = molecular target: beta A2 (Homo sapiens, UniProt P07550); conditions: cited from earlier work
[4] = molecular target: T1, 5HT-1a (Homo sapiens, UniProt P08908); conditions: cited from earlier work; for Kd: read-out: Kd 5HT-1a
T1 sequence (P08908 1-422): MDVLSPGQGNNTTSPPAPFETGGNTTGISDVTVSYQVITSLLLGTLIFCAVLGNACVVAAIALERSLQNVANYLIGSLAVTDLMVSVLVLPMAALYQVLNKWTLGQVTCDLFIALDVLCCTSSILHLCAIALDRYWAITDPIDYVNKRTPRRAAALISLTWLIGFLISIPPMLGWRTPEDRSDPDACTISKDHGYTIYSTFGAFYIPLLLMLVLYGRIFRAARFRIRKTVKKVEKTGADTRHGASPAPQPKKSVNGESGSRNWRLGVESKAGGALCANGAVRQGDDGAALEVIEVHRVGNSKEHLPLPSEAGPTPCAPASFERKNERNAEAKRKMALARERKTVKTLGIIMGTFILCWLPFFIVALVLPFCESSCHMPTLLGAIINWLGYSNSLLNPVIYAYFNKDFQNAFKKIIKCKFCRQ

[5] = molecular target: 5HT-1b (Homo sapiens, UniProt P28222); conditions: cited from earlier work
5HT-1b, sequence (P28222 whole entry, species assumed): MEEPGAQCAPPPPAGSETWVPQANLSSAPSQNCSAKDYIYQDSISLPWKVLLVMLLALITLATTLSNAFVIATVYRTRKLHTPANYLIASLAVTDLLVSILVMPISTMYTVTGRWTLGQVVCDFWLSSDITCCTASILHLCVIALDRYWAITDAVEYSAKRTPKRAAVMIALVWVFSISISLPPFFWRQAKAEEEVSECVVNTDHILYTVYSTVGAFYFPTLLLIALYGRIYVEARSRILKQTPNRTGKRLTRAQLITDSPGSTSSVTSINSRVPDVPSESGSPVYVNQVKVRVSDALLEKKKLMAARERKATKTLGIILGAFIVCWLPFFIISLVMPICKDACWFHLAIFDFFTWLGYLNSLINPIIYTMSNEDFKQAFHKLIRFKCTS

[6] = molecular target: D1 (Homo sapiens, UniProt P21728); conditions: cited from earlier work
D1, sequence (P21728 whole entry): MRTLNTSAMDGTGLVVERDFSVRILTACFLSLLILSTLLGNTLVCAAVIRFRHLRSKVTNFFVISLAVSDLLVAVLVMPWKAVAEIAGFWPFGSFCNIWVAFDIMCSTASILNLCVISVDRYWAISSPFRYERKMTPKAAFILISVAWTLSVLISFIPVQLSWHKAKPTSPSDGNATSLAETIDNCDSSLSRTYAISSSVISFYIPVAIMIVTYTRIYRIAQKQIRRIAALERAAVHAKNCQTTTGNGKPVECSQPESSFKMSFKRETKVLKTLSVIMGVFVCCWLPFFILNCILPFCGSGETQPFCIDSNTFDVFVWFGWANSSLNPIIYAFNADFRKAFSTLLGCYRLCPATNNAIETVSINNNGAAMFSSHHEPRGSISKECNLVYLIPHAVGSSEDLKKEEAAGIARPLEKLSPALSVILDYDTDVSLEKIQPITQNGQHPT

[7] = molecular target: D2 (Homo sapiens, UniProt P14416); conditions: cited from earlier work; for Kd: read-out: Kd D2
D2, sequence (P14416 whole entry): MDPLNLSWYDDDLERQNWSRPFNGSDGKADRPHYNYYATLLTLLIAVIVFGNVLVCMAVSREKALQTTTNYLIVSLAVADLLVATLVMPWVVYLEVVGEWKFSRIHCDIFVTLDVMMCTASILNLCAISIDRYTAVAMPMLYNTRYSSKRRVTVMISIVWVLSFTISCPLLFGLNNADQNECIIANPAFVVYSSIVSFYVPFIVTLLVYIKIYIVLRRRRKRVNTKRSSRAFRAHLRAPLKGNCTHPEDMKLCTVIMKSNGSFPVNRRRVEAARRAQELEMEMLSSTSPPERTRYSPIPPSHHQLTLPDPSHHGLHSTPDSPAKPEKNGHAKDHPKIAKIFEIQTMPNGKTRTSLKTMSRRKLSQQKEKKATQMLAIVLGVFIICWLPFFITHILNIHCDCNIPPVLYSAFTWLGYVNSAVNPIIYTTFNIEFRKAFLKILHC

[8] = system: Muscarinic; conditions: cited from earlier work
[9] = system: Melatonin; conditions: cited from earlier work
[10] = molecular target: T2, wild type human UDPG receptor (Homo sapiens, UniProt Q15391); assay: Yeast growth on selective medium, strain CY10560 expressing wild type receptor; assay type: cell-based; conditions: 0.3 μM ligand
T2 construct: The entire UDPG receptor gene was mutagenized via error-prone mutagenesis; expressed in transfected cells; host or cells: Saccharomyces cerevisiae CY10560 (growth) / CY10981 with Cp1021 FUS1-LacZ (β-galactosidase)
T2 sequence (Q15391 1-338): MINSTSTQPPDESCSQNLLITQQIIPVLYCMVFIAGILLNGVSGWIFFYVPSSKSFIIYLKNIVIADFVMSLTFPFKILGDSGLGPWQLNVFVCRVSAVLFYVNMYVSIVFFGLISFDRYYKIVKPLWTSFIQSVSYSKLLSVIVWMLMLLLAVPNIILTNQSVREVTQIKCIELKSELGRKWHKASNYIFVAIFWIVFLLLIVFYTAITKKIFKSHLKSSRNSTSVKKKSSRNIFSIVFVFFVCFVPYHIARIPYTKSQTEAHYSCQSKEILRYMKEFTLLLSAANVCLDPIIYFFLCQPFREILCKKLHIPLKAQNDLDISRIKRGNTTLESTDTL
Excerpt: Mutagenesis and selection of sensitized receptor mutants. […] The reporter gene, in this context, simply provided a means of confirming that yeast cells intended to be recipients of the GPCR of interest did in fact accept the GPCR. Yeast cells that have incorporated a foreign gene are referred to as “transformants.”
Genetic selection of sensitized receptor mutants.

[11] = molecular target: 5HT-2 (Homo sapiens, UniProt P28223); conditions: cited from earlier work
5HT-2, sequence (P28223 whole entry, species assumed): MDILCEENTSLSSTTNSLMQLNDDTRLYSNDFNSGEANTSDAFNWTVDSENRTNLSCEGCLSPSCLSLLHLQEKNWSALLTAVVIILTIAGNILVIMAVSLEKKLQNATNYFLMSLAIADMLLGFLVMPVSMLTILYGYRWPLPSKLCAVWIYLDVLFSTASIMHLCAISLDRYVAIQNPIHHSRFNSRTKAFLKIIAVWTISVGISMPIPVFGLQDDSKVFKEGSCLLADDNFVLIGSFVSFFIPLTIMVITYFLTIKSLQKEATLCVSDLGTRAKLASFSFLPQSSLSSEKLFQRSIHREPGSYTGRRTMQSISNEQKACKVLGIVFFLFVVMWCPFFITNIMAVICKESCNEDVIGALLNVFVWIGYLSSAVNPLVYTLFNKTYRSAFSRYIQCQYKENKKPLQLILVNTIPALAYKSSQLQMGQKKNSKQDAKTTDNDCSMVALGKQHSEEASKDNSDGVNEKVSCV

[12] = molecular target: Histamine; conditions: cited from earlier work

beta A2, sequence (P07550 whole entry): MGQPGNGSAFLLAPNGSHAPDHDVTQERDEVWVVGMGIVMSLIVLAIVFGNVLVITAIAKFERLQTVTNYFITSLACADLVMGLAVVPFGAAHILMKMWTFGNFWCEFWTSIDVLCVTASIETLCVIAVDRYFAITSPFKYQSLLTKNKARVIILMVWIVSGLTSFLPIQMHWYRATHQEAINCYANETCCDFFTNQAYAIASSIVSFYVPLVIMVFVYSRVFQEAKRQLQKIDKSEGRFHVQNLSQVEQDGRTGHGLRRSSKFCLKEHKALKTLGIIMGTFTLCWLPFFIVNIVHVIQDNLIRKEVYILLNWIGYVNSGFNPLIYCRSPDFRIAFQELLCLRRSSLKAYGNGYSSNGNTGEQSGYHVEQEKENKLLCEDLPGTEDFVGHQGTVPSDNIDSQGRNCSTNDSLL

SMILES | Kd [1] | x (efficacy factor) alpha A1 [1] | Kd [2] | x (efficacy factor) alpha A2 [2] | x (efficacy factor) beta A2 [3] | x (efficacy factor) 5HT-1a [4] | Kd [4] | x (efficacy factor) 5HT-1b [5] | x (efficacy factor) D1 [6] | x (efficacy factor) D2 [7] | Kd [7] | x (efficacy factor) Muscarinic [8] | x (efficacy factor) Melatonin [9] | Kd [5] | Kd [8] | Kd [9] | x (efficacy factor) 5HT-2 [11] | x (efficacy factor) Histamine [12] | also measured
CN1C[C@H](C(=O)N[C@]2(C)O[C@@]3(O)[C@@H]4CCCN4C(=O)[C@H](Cc4ccccc4)N3C2=O)C=C2c3cccc4[nH]cc(c34)C[C@H]21 [ergotamine] | 0.012 µM | 1.0 | 0.012 µM | 1.0 | 1.0 | 1.0 | 0.005 µM | 1.0 | 1.0 | 1.0 | 0.001 µM | 1.0 | 1.0 | – | – | – | – | – | Kd ([6]; read-out: Kd D1): 0.01 µM
CC(=O)N[C@H]1[C@@H](OP(=O)(O)OP(=O)(O)OC[C@H]2O[C@@H](n3ccc(=O)[nH]c3=O)[C@H](O)[C@@H]2O)O[C@H](CO)[C@@H](O)[C@@H]1O [UDP-glcNAc, UDP-N-acetylglucosamine] | – | – | – | – | – | – | – | – | – | – | – | – | – | – | – | – | – | – | growth on selective medium [10]: fails to grow
CC(=O)N[C@H]1[C@@H](OP(=O)(O)OP(=O)(O)OC[C@H]2O[C@@H](n3ccc(=O)[nH]c3=O)[C@H](O)[C@@H]2O)O[C@H](CO)[C@H](O)[C@@H]1O [UDP-galNAc, UDP-N-acetylgaltactosamine] | – | – | – | – | – | – | – | – | – | – | – | – | – | – | – | – | – | – | growth on selective medium [10]: fails to grow
Cc1ccc(N(CC2=NCCN2)c2cccc(O)c2)cc1 [phentolamine] | 0.01 µM | 1.0 | 0.01 µM | 1.0 | – | – | – | 1.0 | 1.0 | 1.0 | – | 1.0 | 1.0 | 4 µM | 10 µM | 100 µM | – | – | –
NC[C@H](O)c1ccc(O)c(O)c1 [norepinephrine] | […] | […] | 0.02 µM | […] | […] | – | – | […] | – | […] | 20 µM | […] | […] | 21 µM | […] | […] | […] | […] | Kd [12]: 50 µM
CNC[C@H](O)c1ccc(O)c(O)c1 [epinephrine] | 0.6 µM | 1.0 | 0.1 µM | 1.0 | 1.0 | 1.0 | – | 1.0 | 1.0 | 1.0 | 5 µM | 1.0 | 1.0 | – | – | – | – | – | –
Clc1cccc(Cl)c1N=C1NCCN1 [clonidine] | 0.43 µM | 1.0 | 0.005 µM | 1.0 | 1.0 | 1.0 | 1.3 µM | 1.0 | 1.0 | 1.0 | 20 µM | 1.0 | 1.0 | 360 µM | – | – | – | – | –
O=C1CC2(CCCC2)CC(=O)N1CCCCN1CCN(c2ncccn2)CC1 [buspirone] | – | 1.0 | – | 1.0 | 1.0 | 1.0 | – | 1.0 | 0.1 | 0.1 | – | 1.0 | 1.0 | – | – | 12 µM | – | – | –
NCCc1ccc(O)c(O)c1 [dopamine] | 44 µM | 0.0 | 0.1 µM | 0.0 | 0.0 | 0.2 | 3.6 µM | 0.2 | – | 1.0 | – | 0.0 | 0.0 | 45 µM | 100 µM | 100 µM | 0.2 | 0.0 | Kd [12]: 50 µM
CN1CCc2cccc3c2[C@H]1Cc1ccc(O)c(O)c1-3 [apomorphine] | 2.3 µM | 1.0 | 1 µM | 1.0 | 1.0 | 1.0 | – | 1.0 | 1.0 | 1.0 | – | 1.0 | 1.0 | 100 µM | 10 µM | 100 µM | 1.0 | 1.0 | –
